{"source": "patent US8367632B2", "about": "“Methods for reverting methylation by targeting methyltransferases” (Ohio State University Research Foundation, priority 2007, dated 2013)", "type_in_all_cases": "cell-based, human", "key": {"DNMT3B 3′UTR": {"tested_on": "DNMT3B 3′UTR", "assay": "Luciferase reporter assay for targeting DNMT 3′UTRs (DNMT3B)", "conditions": "A549 cells, 100 nM precursor miR, 24 h after transfection, with respect to the scrambled oligonucleotide", "excerpt": "(§1) To validate these miRNA-target interactions in vivo, the DNMT3A and DNTM3B complementary sites were cloned into the 3′UTR of the firefly luciferase gene and co-transfected with miR-29a, mi-R29b or miR-29c in […] (NSCLC) cells.\nLuciferase reporter assay for targeting DNMT 3′UTRs. For luciferase reporter experiments a DNMT3A 3′UTR segment of 979 bp and a DNMT3B 3′UTR segment of 978 bp were amplified by PCR from human genomic DNA and inserted into the pGL3-control vector with SV40 promoter (Promega), using the XbaI site immediately […] from the stop codon of luciferase. The following sets of primers were used to generate specific fragments: […]\n(§2) A549 cells were co-transfected in 12-well plates by using Lipofectamine 2000 reagent (Invitrogen), according to the manufacturer's protocol, with 0.4 μg of the firefly luciferase report vector and 0.08 μg of the control vector containing Renilla luciferase pRL-TK vector (Promega). For each well, 100 nM (final) of precursor miR-29a, 29b-1, 29c or scrambled miR (Ambion) was used. Firefly and Renilla luciferase activities were measured consecutively by using dual-luciferase assays (Promega), 24 h after the transfection. The experiments were performed in triplicate."}, "WWOX mRNA": {"tested_on": "WWOX mRNA", "assay": "WWOX mRNA level by qRT-PCR", "conditions": "A549 cells, 48 h after transfection", "procedure": "(§3) To characterize effects of the methylation changes on gene expression, the mRNA expression levels of two TSGs, FHIT and WWOX, which are frequently silenced by promoter methylation in lung cancer^14 were analyzed.\n(§4) Quantitative RT-PCR. Quantitative RT-PCR (qRT-PCR) analysis for miRNA s was performed in triplicate with the TaqMan MicroRNA assays kit (Applied Biosystems, Foster City, Calif.), according to the manufacturer's instructions. 18S RNA was used for normalization; qRT-PCR analyses for other genes of interest were performed as previously described. RNA was reverse transcribed to cDNA with gene-specific primers and IQ SYBR Green Supermix (Biorad, Hercules, Calif.). GAPDH served as normalization control. For the silencing of miR-29s, A549 and H1299 cells were transfected in 6-well plates by using Lipofectamine 2000 reagent (Invitrogen), according to the manufacturer's protocol, with 100 nM (final) of antisense miR-29a, 29b-1, 29c or scrambled antisense miR (Fidelity Systems, Gaithersburg, Md.)."}, "FHIT mRNA": {"tested_on": "FHIT mRNA", "assay": "FHIT mRNA level by qRT-PCR", "conditions": "A549 cells, 48 h after transfection", "procedure": "as §3, §4"}, "DNMT3A 3′UTR": {"tested_on": "DNMT3A 3′UTR", "assay": "Luciferase reporter assay for targeting DNMT 3′UTRs (DNMT3A)", "conditions": "A549 cells, 100 nM precursor miR, 24 h after transfection, with respect to the scrambled oligonucleotide", "excerpt": "as §1\nLuciferase reporter assay for targeting DNMT 3′UTRs. For luciferase reporter experiments a DNMT3A 3′UTR segment of 979 bp and a DNMT3B 3′UTR segment of 978 bp were amplified by PCR from human genomic DNA and inserted into the pGL3-control vector with SV40 promoter (Promega), using the XbaI site immediately […] from the stop codon of luciferase. The following sets of primers were used to generate specific fragments:\nThe amplified 3′UTR of DNMT3A contains an XbaI restriction site in position 583, so we cloned separately the upstream 3′UTR (DNMT3A 3′-UTRup=583 bp) and the downstream fragment (DNMT3A 3′-UTRdown=396 bp) into the pGL3 vectors. […]\nas §2, with “For each well, 100 nM (final) of precursor miR-29a, 29b-1, 29c or scrambled miR (Ambion) was used.” left out, “The experiments were performed in triplicate.” left out"}}, "data": [{"substance": "miR-29a: microRNA of the miR-29 family, SEQ ID NO: 1; transfected as precursor miR-29a (Ambion) (UAGCACCAUCUGAAAUCGGUU; listed as RNA, chemistry not given here)", "values": [{"measurement": "luciferase activity (DNMT3B complementary site in 3′UTR of firefly luciferase)", "setting": "DNMT3B 3′UTR", "value": "significantly reduced"}, {"measurement": "increase of WWOX mRNA level", "setting": "WWOX mRNA", "value": "~40", "unit": "%"}, {"measurement": "increase of FHIT expression (mRNA)", "setting": "FHIT mRNA", "value": "~65", "unit": "%"}, {"measurement": "luciferase activity (DNMT3A complementary site in 3′UTR of firefly luciferase)", "setting": "DNMT3A 3′UTR", "value": "significantly reduced"}]}, {"substance": "miR-29c: microRNA of the miR-29 family, SEQ ID NO: 3; transfected as precursor miR-29c (Ambion) (UAGCACCAUUUGAAAUCGGU; listed as RNA, chemistry not given here)", "values": [{"measurement": "luciferase activity (DNMT3B complementary site in 3′UTR of firefly luciferase)", "setting": "DNMT3B 3′UTR", "value": "significantly reduced"}, {"measurement": "increase of FHIT expression (mRNA)", "setting": "FHIT mRNA", "value": "~74", "unit": "%"}, {"measurement": "luciferase activity (DNMT3A complementary site in 3′UTR of firefly luciferase)", "setting": "DNMT3A 3′UTR", "value": "significantly reduced"}]}]}
